Counter-ions that a name gives are not always drawn. Like-named read-outs stand apart in the source and are kept apart here.
What was measured:
Assay type in all cases: cell-based
E. coli ATCC 25922 = test: In vitro MIC, Broth Dilution Method, E. coli ATCC 25922; conditions: Escherichia coli
Excerpt: (§1) The in vitro activity of the compounds of the present invention as measured by the Minimum Inhibitory Concentration (MIC) in micrograms/ml utilizing the Broth Dilution Method against a variety of Gram-positive and Gram-negative organisms, is as follows:
(§2) Concentration (MIC) in micrograms/ml utilizing the Broth Dilution Method against a variety of Gram-positive and Gram-negative organisms, is as follows:
(§3) In Vitro MIC (μg/ml), Broth Dilution Method

E. coli TEM 1 = test: microbe, parasite or virus in culture; conditions: Escherichia coli, TEM1, read-out: In Vitro MIC
Excerpt: as §1, §2, §3

E. cloacae 5699 = test: In vitro MIC, Broth Dilution Method, E. cloacae 5699
Excerpt: as §1, §2, §3

E. cloacae P99 = test: In vitro MIC, Broth Dilution Method, E. cloacae P99; conditions: Enterobacter cloacae, P99, read-out: In Vitro MIC
Excerpt: as §1, §2, §3

S. marcescens 1071 = test: In vitro MIC, Broth Dilution Method, S. marcescens 1071
P. aeruginosa 8710 = test: In vitro MIC, Broth Dilution Method, P. aeruginosa 8710; conditions: Pseudomonas aeruginosa
Excerpt: as §1, §2, §3

P. aeruginosa 18 S/H = test: In vitro MIC, Broth Dilution Method, P. aeruginosa 18 S/H; conditions: Pseudomonas aeruginosa
Excerpt: as §1, §2, §3

E. faecalis ATCC 29212 = test: In vitro MIC, Broth Dilution Method, E. faecalis ATCC 29212; conditions: Enterococcus faecalis, ATCC29212
Excerpt: as §1, §2, §3

S. pneumoniae 6301 = test: In vitro MIC, Broth Dilution Method, S. pneumoniae 6301
Excerpt: as §1, §2, §3

S. aureus 1059B = test: In vitro MIC, Broth Dilution Method, S. aureus 1059B; conditions: Staphylococcus aureus
S. aureus 95 = test: In vitro MIC, Broth Dilution Method, S. aureus 95
Excerpt: as §1, §2, §3

S. aureus ATCC 29213 = test: In vitro MIC, Broth Dilution Method, S. aureus ATCC 29213; conditions: Staphylococcus aureus
[1] = ATCC25922, read-out: In Vitro MIC
[2] = Enterobacter cloacae, Broth Dilution Method, E. cloacae 5699, read-out: In Vitro MIC
[3] = Serratia marcescens, Broth Dilution Method, S. marcescens 1071, read-out: In Vitro MIC
[4] = Streptococcus pneumoniae, 6301, read-out: In Vitro MIC
[5] = Staphylococcus aureus, Broth Dilution Method, S. aureus 95, read-out: In Vitro MIC
[6] = ATCC29213, Broth Dilution Method, S. aureus ATCC 29213, read-out: In Vitro MIC
[7] = Enterobacter cloacae, 5699, read-out: In Vitro MIC
[8] = Streptococcus pneumoniae, Broth Dilution Method, S. pneumoniae 6301, read-out: In Vitro MIC
[9] = Staphylococcus aureus, 95, read-out: In Vitro MIC

| Structure (SMILES) | MIC (E. coli ATCC 25922; [1]) [µg/mL] | MIC (E. coli TEM 1) [µg/mL] | MIC (E. cloacae 5699; [2]) [µg/mL] | MIC (E. cloacae P99) [µg/mL] | MIC (S. marcescens 1071; [3]) [µg/mL] | MIC (P. aeruginosa 8710) [µg/mL] | MIC (P. aeruginosa 18 S/H) [µg/mL] | MIC (E. faecalis ATCC 29212) [µg/mL] | MIC (S. pneumoniae 6301; [4]) [µg/mL] | MIC (S. aureus 1059B) [µg/mL] | MIC (S. aureus 95; [5]) [µg/mL] | MIC (S. aureus ATCC 29213; [6]) [µg/mL] | MIC (E. cloacae 5699; [7]) [µg/mL] | MIC (S. pneumoniae 6301; [8]) [µg/mL] | MIC (S. aureus 95; [9]) [µg/mL] | MIC (E. coli ATCC 25922; ATCC25922, Broth Dilution Method, E. coli ATCC 25922, read-out: In Vitro MIC) [µg/mL] | MIC (S. marcescens 1071; Serratia marcescens, 1071, read-out: In Vitro MIC) [µg/mL] | MIC (S. aureus ATCC 29213; ATCC29213, read-out: In Vitro MIC) [µg/mL] |
| --- | --- | --- | --- | --- | --- | --- | --- | --- | --- | --- | --- | --- | --- | --- | --- | --- | --- | --- |
| CO/N=C(\C(=O)N[C@@H]1C(=O)N2C(C(=O)O)=C(C[N+]3(C)CCN(c4c(F)cc5c(=O)c(C(=O)O)cn(CCF)c5c4F)CC3)CS[C@H]12)c1csc(N)n1 [Compound A, [6R-[6α,7β(Z)]]-1-[7-[[[(2-amino-4-thiazolyl)(methoxyimino)acetyl]amino]-2-carboxy-8-oxo-5-thia-1-azabicyclo[4.2.0]oct-2-en-3-yl]methyl]-4-[3-carboxy-6,8-difluoro-1-(2-fluoroethyl)-1,4-dihydro-4-oxo-7-quinolinyl]-1-methylpiperazinium iodide] | 0.25 | 0.25 | 0.5 | 0.5 | 0.5 | 8 | 8 | 64 | 0.063 | 2 | 4 | 4 |  |  |  |  |  |  |
| C[N+]1(CC2=C(C(=O)O)N3C(=O)[C@@H](NC(=O)COc4ccccc4)[C@H]3SC2)CCN(c2c(F)cc3c(=O)c(C(=O)O)cn(CCF)c3c2F)CC1.[I-] [Compound B, (6R-trans)-4-[3-carboxy-1-(2-fluoroethyl)-6,8-difluoro-1,4-dihydro-4-oxoquinolin-7-yl]-1-[[2-carboxy-8-oxo-7-[(phenoxyacetyl)amino]-5-thia-1-azabicyclo-[4.2.0]oct-2-en-3-yl]methyl]-1-methyl-piperazinium iodide] | 0.5 | 0.5 |  | 0.5 |  | 8 | 4 | 32 |  |  |  |  | 0.5 | 0.25 | 1 |  |  |  |
| CC(C)(O/N=C(\C(=O)N[C@@H]1C(=O)N2C(C(=O)[O-])=C(C[N+]3(C)CCN(c4c(F)cc5c(=O)c(C(=O)O)cn(CCF)c5c4F)CC3)CS[C@H]12)c1csc(N)n1)C(=O)O [Compound C, [6R-[6α,7β(Z)]]-1-[[7-[[[(2-amino-4-thiazolyl)[1-(1-carboxy-1-methyl)ethoxy]imino]acetyl]amino]-8-oxo-5-thia-1-azabicyclo-[4.2.0]oct-2-en-3-yl]methyl]-4-[3-carboxy-1-(2-fluoroethyl)-6,8-difluoro-1,4-dihydro-4-oxoquinolin-7-yl]-1-methylpiperazinium hydroxide inner salt monosodium salt] |  | 0.5 |  | 2 |  | 8 | 8 | 32 |  | 8 |  |  | 0.5 | 1 | 4 | 0.25 | 0.5 | 4 |
| CCn1cc(C(=O)O)c(=O)c2cc(F)c(N3CC[N+](C)(CC4=C(C(=O)O)N5C(=O)[C@@H](NC(=O)/C(=N\OC)c6csc(N)n6)[C@H]5SC4)CC3)cc21 [Compound D, [6R-[6α,7β(Z)]]-1-[[7-[[(2-amino-4-thiazolyl)(methoxyimino)acetyl]amino]-2-carboxy-8-oxo-5-thia-1-azabicyclo[4.2.0]-oct-2-en-3-yl]methyl]-4-(3-carboxy-1-ethyl-6-fluoro-1,4-dihydro-4-oxo-7-quinolinyl)-1-methylpiperazinium iodide] | 0.5 | 0.5 | 1 | 1 | 0.5 | 8 | 32 | 32 | 0.063 | 2 | 4 | 4 |  |  |  |  |  |  |
| C[N+]1(CC2=C(C(=O)O)N3C(=O)[C@@H](NC=O)[C@H]3SC2)CCN(c2c(F)cc3c(=O)c(C(=O)O)cn(CCF)c3c2F)CC1 [Compound E, trifluoroacetate salt] | 0.5 | 0.5 |  | 0.5 | 1 | 8 | 8 | 32 |  | 0.5 | 1 | 0.5 | 0.5 | 1 |  |  |  |  |

— US5329002A, “Antibacterial cephalosporin compounds” (Hoffmann-La Roche Inc., priority 1990, dated 1994)
